Results reported in patent publication US20040266623A1, “SYNERGISTIC QUINCLORAC HERBICIDAL COMPOSITIONS” (priority 2003, published 2004).

Tested on: crabgrass
Assay: Greenhouse pot test, postemergent spray, visual control rating converted to percent control
Format: in vivo
Method in brief: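 Plants were rated visually at 24 HAT through 21 DAT on a 1 (none) to 9 (death) scale, later expressed as percent control. Treatment was a postemergent greenhouse pot spray delivering 43.46 gallons/acre onto plants in soilless media. Two- and three-way mixtures were judged for synergy against Colby-expected values.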

## O=C(O)c1c(Cl)ccc2cc(Cl)cnc12 [Quinclorac, 3,7-dichloro-8-quinolinecarboxylic acid]
Test 1, 7 DAT, 0.18 lbs/A
  % Control Crabgrass: 44.4%
  Control (1-9) Crabgrass: 4
Test 1, 7 DAT, 0.375 lbs/A
  % Control Crabgrass: 44.4%
  Control (1-9) Crabgrass: 4
Test 1, 7 DAT, 0.75 lbs/A
  % Control Crabgrass: 44.4%
  Control (1-9) Crabgrass: 4
Test 1, 14 DAT, 0.18 lbs/A
  % Control Crabgrass: 77.8%
  Control (1-9) Crabgrass: 7
Test 1, 14 DAT, 0.375 lbs/A
  % Control Crabgrass: 55.6%
  Control (1-9) Crabgrass: 5
Test 1, 14 DAT, 0.75 lbs/A
  % Control Crabgrass: 55.6%
  Control (1-9) Crabgrass: 5
Test 1, 24 HAT, 0.18 lbs/A
  % Control Crabgrass: 22.2%
  Control (1-9) Crabgrass: 2
Test 1, 24 HAT, 0.375 lbs/A
  % Control Crabgrass: 22.2%
  Control (1-9) Crabgrass: 2
Test 1, 24 HAT, 0.75 lbs/A
  % Control Crabgrass: 22.2%
  Control (1-9) Crabgrass: 2
Test 1, 48 HAT, 0.18 lbs/A
  % Control Crabgrass: 33.3%
  Control (1-9) Crabgrass: 3
Test 1, 48 HAT, 0.375 lbs/A
  % Control Crabgrass: 44.4%
  Control (1-9) Crabgrass: 4
Test 1, 48 HAT, 0.75 lbs/A
  % Control Crabgrass: 44.4%
  Control (1-9) Crabgrass: 4
Test 2, 7 DAT, 0.18 lbs/A
  % Control Crabgrass: 33.3%
  Control (1-9) Crabgrass: 3
Test 2, 7 DAT, 0.375 lbs/A
  % Control Crabgrass: 77.8%
  Control (1-9) Crabgrass: 7
Test 2, 7 DAT, 0.75 lbs/A
  % Control Crabgrass: 77.8%
  Control (1-9) Crabgrass: 7
Test 2, 14 DAT, 0.18 lbs/A
  % Control Crabgrass: 55.6%
  Control (1-9) Crabgrass: 5
Test 2, 14 DAT, 0.375 lbs/A
  % Control Crabgrass: 77.8%
  Control (1-9) Crabgrass: 7
Test 2, 14 DAT, 0.75 lbs/A
  % Control Crabgrass: 88.9%
  Control (1-9) Crabgrass: 8
Test 2, 24 HAT, 0.18 lbs/A
  % Control Crabgrass: 33.3%
  Control (1-9) Crabgrass: 3
Test 2, 24 HAT, 0.375 lbs/A
  % Control Crabgrass: 22.2%
  Control (1-9) Crabgrass: 2
Test 2, 24 HAT, 0.75 lbs/A
  % Control Crabgrass: 22.2%
  Control (1-9) Crabgrass: 2
Test 2, 72 HAT, 0.18 lbs/A
  % Control Crabgrass: 44.4%
  Control (1-9) Crabgrass: 4
Test 2, 72 HAT, 0.375 lbs/A
  % Control Crabgrass: 33.3%
  Control (1-9) Crabgrass: 3
Test 2, 72 HAT, 0.75 lbs/A
  % Control Crabgrass: 44.4%
  Control (1-9) Crabgrass: 4
Test 4, 7 DAT, 0.18 lbs/A
  % Control Crabgrass: 11.1%
  Control (1-9) Crabgrass: 1
Test 4, 7 DAT, 0.375 lbs/A
  % Control Crabgrass: 22.2%
  Control (1-9) Crabgrass: 2
Test 4, 7 DAT, 0.75 lbs/A
  % Control Crabgrass: 22.2%
  Control (1-9) Crabgrass: 2
Test 4, 14 DAT, 0.18 lbs/A
  % Control Crabgrass: 22.2%
  Control (1-9) Crabgrass: 2
Test 4, 14 DAT, 0.375 lbs/A
  % Control Crabgrass: 33.3%
  Control (1-9) Crabgrass: 3
Test 4, 14 DAT, 0.75 lbs/A
  % Control Crabgrass: 44.4%
  Control (1-9) Crabgrass: 4
